Laboratory results as given in patent publication US20250276953A1, “SMALL MOLECULE SIRTUIN INHIBITORS AND USES THEREOF” (The Regents of the University of Michigan, priority 2022, published 2025).

What follows are compounds tested against T1, SIRT5 (Homo sapiens (Human), UniProt Q9NXA8) (assay: SIRT5 IC50 (Table I)).
Assay type: biochemical

T1 sequence (Q9NXA8 37-310): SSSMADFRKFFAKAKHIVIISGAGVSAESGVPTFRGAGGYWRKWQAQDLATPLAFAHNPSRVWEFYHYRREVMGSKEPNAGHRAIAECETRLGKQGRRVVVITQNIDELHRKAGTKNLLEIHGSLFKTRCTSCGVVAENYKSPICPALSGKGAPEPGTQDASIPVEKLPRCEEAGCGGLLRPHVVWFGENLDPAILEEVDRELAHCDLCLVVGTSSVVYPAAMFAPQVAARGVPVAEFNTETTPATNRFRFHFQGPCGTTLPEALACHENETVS

SMILES	IC50 [µM]
CC(=O)Nc1ccc(-c2csc(Nc3ccc(C(=O)O)c(O)c3)n2)cc1 [Compound 1-1, 4-((4-(4-acetamidophenyl)thiazol-2-yl)amino)-2-hydroxybenzoic acid]	26.4 ± 0.83
CC(=O)Nc1ccc(-c2csc(NC(=S)Nc3ccc(C(=O)O)c(O)c3)n2)cc1 [Compound 1-5, 4-(3-(4-(4-acetamidophenyl)thiazol-2-yl)thioureido)-2-hydroxybenzoic acid]	12.4 ± 0.58
CC(=O)Nc1ccc(-c2csc(NC(=S)Nc3ccc(C(=O)O)cc3)n2)cc1 [Compound 1-7, 4-(3-(4-(4-acetamidophenyl)thiazol-2-yl)thioureido)benzoic acid]	101 ± 8.48
CC(=O)Nc1ccc(-c2csc(NC(=S)Nc3ccc(O)c(C(=O)O)c3)n2)cc1 [Compound 1-8, 5-(3-(4-(4-acetamidophenyl)thiazol-2-yl)thioureido)-2-hydroxybenzoic acid]	55.9 ± 5.42
CC(=O)Nc1ccc(-c2csc(NC(=S)Nc3ccc(C(=O)O)cc3O)n2)cc1 [Compound 1-9, 4-(3-(4-(4-acetamidophenyl)thiazol-2-yl)thioureido)-3-hydroxybenzoic acid]	50.7 ± 5.64
Cc1ccc(-c2csc(NC(=S)Nc3ccc(C(=O)O)c(O)c3)n2)cc1 [Compound 1-10, 2-hydroxy-4-(3-(4-(p-tolyl)thiazol-2-yl)thioureido)benzoic acid]	23.4 ± 0.92
Cc1cccc(-c2csc(NC(=S)Nc3ccc(C(=O)O)c(O)c3)n2)c1 [Compound 1-11, 2-hydroxy-4-(3-(4-(m-tolyl)thiazol-2-yl)thioureido)benzoic acid]	27.7 ± 1.02
Cc1ccccc1-c1csc(NC(=S)Nc2ccc(C(=O)O)c(O)c2)n1 [Compound 1-12, 2-hydroxy-4-(3-(4-(o-tolyl)thiazol-2-yl)thioureido)benzoic acid]	34 ± 2.18
O=C(O)c1ccc(NC(=S)Nc2nc(-c3ccc(F)cc3)cs2)cc1O [Compound 1-13, 4-(3-(4-(4-fluorophenyl)thiazol-2-yl)thioureido)-2-hydroxybenzoic acid]	17.3 ± 0.28
O=C(O)c1ccc(NC(=S)Nc2nc(-c3cccc(F)c3)cs2)cc1O [Compound 1-14, 4-(3-(4-(3-fluorophenyl)thiazol-2-yl)thioureido)-2-hydroxybenzoic acid]	18.3 ± 0.95
O=C(O)c1ccc(NC(=S)Nc2nc(-c3ccccc3F)cs2)cc1O [Compound 1-15, 4-(3-(4-(2-fluorophenyl)thiazol-2-yl)thioureido)-2-hydroxybenzoic acid]	26.2 ± 2.54
O=C(O)c1ccc(NC(=S)Nc2nc(-c3ccc(C(F)(F)F)cc3)cs2)cc1O [Compound 1-16, 2-hydroxy-4-(3-(4-(4-(trifluoromethyl)phenyl)thiazol-2-yl)thioureido)benzoic acid]	26.8 ± 1.42
O=C(O)c1ccc(NC(=S)Nc2nc(-c3cccc(C(F)(F)F)c3)cs2)cc1O [Compound 1-17, 2-hydroxy-4-(3-(4-(3-(trifluoromethyl)phenyl)thiazol-2-yl)thioureido)benzoic acid]	24.3 ± 2.54
COc1ccc(-c2csc(NC(=S)Nc3ccc(C(=O)O)c(O)c3)n2)cc1 [Compound 1-18, 2-hydroxy-4-(3-(4-(4-methoxyphenyl)thiazol-2-yl)thioureido)benzoic acid]	29.2 ± 2.88
COc1cccc(-c2csc(NC(=S)Nc3ccc(C(=O)O)c(O)c3)n2)c1 [Compound 1-19, 2-hydroxy-4-(3-(4-(3-methoxyphenyl)thiazol-2-yl)thioureido)benzoic acid]	41.6 ± 3.79
O=C(O)c1ccc(NC(=S)Nc2nc(-c3ccc(O)cc3)cs2)cc1O [Compound 1-20, 2-hydroxy-4-(3-(4-(4-hydroxyphenyl)thiazol-2-yl)thioureido)benzoic acid]	42.5 ± 3.83
O=C(O)c1ccc(NC(=S)Nc2nc(-c3cccc(O)c3)cs2)cc1O [Compound 1-21, 2-hydroxy-4-(3-(4-(3-hydroxyphenyl)thiazol-2-yl)thioureido)benzoic acid]	32.8 ± 3.87
N#Cc1ccc(-c2csc(NC(=S)Nc3ccc(C(=O)O)c(O)c3)n2)cc1 [Compound 1-22, 4-(3-(4-(4-cyanophenyl)thiazol-2-yl)thioureido)-2-hydroxybenzoic acid]	11.4 ± 0.5

SMILES	IC50 [µM]
O=C(O)c1ccc(NC(=S)Nc2nc(-c3ccc([N+](=O)[O-])cc3)cs2)cc1O [Compound 1-23, 2-hydroxy-4-(3-(4-(4-nitrophenyl)thiazol-2-yl)thioureido)benzoic acid]	4.3 ± 0.3
CC(=O)Nc1cccc(-c2csc(NC(=S)Nc3ccc(C(=O)O)c(O)c3)n2)c1 [Compound 1-24, 4-(3-(4-(3-acetamidophenyl)thiazol-2-yl)thioureido)-2-hydroxybenzoic acid]	35.6 ± 1.3
CC(=O)Nc1ccccc1-c1csc(NC(=S)Nc2ccc(C(=O)O)c(O)c2)n1 [Compound 1-25, 4-(3-(4-(2-acetamidophenyl)thiazol-2-yl)thioureido)-2-hydroxybenzoic acid]	55.6 ± 5.49
O=C(O)c1ccc(NC(=S)Nc2nc(-c3ccc(Br)cc3)cs2)cc1O [Compound 1-26, 4-(3-(4-(4-bromophenyl)thiazol-2-yl)thioureido)-2-hydroxybenzoic acid]	18.6 ± 0.23
O=C(O)c1ccc(NC(=S)Nc2nc(-c3ccc(Cl)cc3)cs2)cc1O [Compound 1-27, 4-(3-(4-(4-chlorophenyl)thiazol-2-yl)thioureido)-2-hydroxybenzoic acid]	18.4 ± 0.28
CNS(=O)(=O)c1ccc(-c2csc(NC(=S)Nc3ccc(C(=O)O)c(O)c3)n2)cc1 [Compound 1-28, 2-hydroxy-4-(3-(4-(4-(N-methylsulfamoyl)phenyl)thiazol-2-yl)thioureido)benzoic acid]	38.8 ± 3.13
CNS(=O)(=O)c1cccc(-c2csc(NC(=S)Nc3ccc(C(=O)O)c(O)c3)n2)c1 [Compound 1-29, 2-hydroxy-4-(3-(4-(3-(N-methylsulfamoyl)phenyl)thiazol-2-yl)thioureido)benzoic acid]	26.1 ± 1.91
O=C(O)c1ccc(NC(=S)Nc2nc(-c3ccc(F)c(F)c3)cs2)cc1O [Compound 1-30, 4-(3-(4-(3,4-difluorophenyl)thiazol-2-yl)thioureido)-2-hydroxybenzoic acid]	16.1 ± 0.73
O=C(O)c1ccc(NC(=S)Nc2nc(-c3ccc(F)cc3F)cs2)cc1O [Compound 1-31, 4-(3-(4-(2,4-difluorophenyl)thiazol-2-yl)thioureido)-2-hydroxybenzoic acid]	19.3 ± 0.93
N#Cc1ccc(-c2csc(NC(=S)Nc3ccc(C(=O)O)c(O)c3)n2)cc1F [Compound 1-32, 4-(3-(4-(4-cyano-3-fluorophenyl)thiazol-2-yl)thioureido)-2-hydroxybenzoic acid]	12.8 ± 0.48
N#Cc1ccc(-c2csc(NC(=S)Nc3ccc(C(=O)O)c(O)c3)n2)c(F)c1 [Compound 1-33, 4-(3-(4-(4-cyano-2-fluorophenyl)thiazol-2-yl)thioureido)-2-hydroxybenzoic acid]	14.8 ± 0.81
O=C(O)c1ccc(NC(=S)Nc2nc(-c3ccc([N+](=O)[O-])cc3F)cs2)cc1O [Compound 1-34, 4-(3-(4-(2-fluoro-4-nitrophenyl)thiazol-2-yl)thioureido)-2-hydroxybenzoic acid]	23.8 ± 2.71
O=C(O)c1ccc(NC(=S)Nc2nc(-c3ccc([N+](=O)[O-])c(F)c3)cs2)cc1O [Compound 1-35, 4-(3-(4-(3-fluoro-4-nitrophenyl)thiazol-2-yl)thioureido)-2-hydroxybenzoic acid]	14.9 ± 1.35
O=C(O)c1ccc(NC(=S)Nc2nc(-c3ccc(F)c([N+](=O)[O-])c3)cs2)cc1O [Compound 1-36, 4-(3-(4-(4-fluoro-3-nitrophenyl)thiazol-2-yl)thioureido)-2-hydroxybenzoic acid]	11.6 ± 0.74
O=C(O)c1ccc(NC(=S)Nc2nc(-c3ccc(F)c(S(=O)(=O)NC4CCCC4)c3)cs2)cc1O [Compound 1-37, 4-(3-(4-(3-(N-cyclopentylsulfamoyl)-4-fluorophenyl)thiazol-2-yl)thioureido)-2-hydroxybenzoic acid]	24.9 ± 0.54
O=C(O)c1ccc(NC(=S)Nc2nc(-c3ccc(F)c(S(=O)(=O)NCc4ccccc4)c3)cs2)cc1O [Compound 1-38, 4-(3-(4-(3-(N-benzylsulfamoyl)-4-fluorophenyl)thiazol-2-yl)thioureido)-2-hydroxybenzoic acid]	8.22 ± 1.3
O=C(O)c1ccc(NC(=S)Nc2nc(-c3ccc([N+](=O)[O-])c(S(=O)(=O)NCc4ccccc4)c3)cs2)cc1O [Compound 1-39, 4-(3-(4-(3-(N-benzylsulfamoyl)-4-nitrophenyl)thiazol-2-yl)thioureido)-2-hydroxybenzoic acid]	2.5 ± 0.21

Each compound was assayed on Ewing sarcoma cell line A673 (assay: Growth inhibition of Ewing sarcoma cell line A673).
Assay type: cell-based

SMILES	growth of Ewing sarcoma cells
CCOC(=O)c1ccc(Nc2nc(-c3ccc(NC(C)=O)cc3)cs2)cc1O [Compound 1-2, Ethyl 4-((4-(4-acetamidophenyl)thiazol-2-yl)amino)-2-hydroxybenzoate]	inhibited growth
CCOC(=O)c1ccc(Nc2nc(-c3ccc(NC(=O)CCCCNC(=O)COc4cccc5c4C(=O)N(C4CCC(=O)NC4=O)C5=O)cc3)cs2)cc1O (stereo not shown) [Compound 1-3, ethyl 4-((4-(4-(5-(2-((2-(2,6-dioxopiperidin-3-yl)-1,3-dioxoisoindolin-4-yl)oxy)acetamido)pentanamido)phenyl)thiazol-2-yl)amino)-2-hydroxybenzoate]	inhibited growth

Each compound was assayed on Ewing sarcoma cell line A4573 (assay: Growth inhibition of Ewing sarcoma cell line A4573).
Assay type: cell-based

SMILES	growth of Ewing sarcoma cells
CCOC(=O)c1ccc(Nc2nc(-c3ccc(NC(C)=O)cc3)cs2)cc1O [Compound 1-2, Ethyl 4-((4-(4-acetamidophenyl)thiazol-2-yl)amino)-2-hydroxybenzoate]	inhibited growth
CCOC(=O)c1ccc(Nc2nc(-c3ccc(NC(=O)CCCCNC(=O)COc4cccc5c4C(=O)N(C4CCC(=O)NC4=O)C5=O)cc3)cs2)cc1O (stereo not shown) [Compound 1-3, ethyl 4-((4-(4-(5-(2-((2-(2,6-dioxopiperidin-3-yl)-1,3-dioxoisoindolin-4-yl)oxy)acetamido)pentanamido)phenyl)thiazol-2-yl)amino)-2-hydroxybenzoate]	inhibited growth

These compounds were tested against T1, SIRT5 (assay: Degradation of SIRT5 protein).
Assay type: cell-based

SMILES	degradation of protein SIRT5
CCOC(=O)c1ccc(Nc2nc(-c3ccc(NC(=O)CCCCNC(=O)COc4cccc5c4C(=O)N(C4CCC(=O)NC4=O)C5=O)cc3)cs2)cc1O (stereo not shown) [Compound 1-3, ethyl 4-((4-(4-(5-(2-((2-(2,6-dioxopiperidin-3-yl)-1,3-dioxoisoindolin-4-yl)oxy)acetamido)pentanamido)phenyl)thiazol-2-yl)amino)-2-hydroxybenzoate]	degraded
